The values that follow come from ChEMBL document CHEMBL1150318, “Discovery of a novel, orally active himbacine-based thrombin receptor antagonist (SCH 530348) with potent antiplatelet activity” (J Med Chem, 2008).

Activity calls are given as the source filed them. The rule behind the calls is not given here.

Series [1] concerns Plasma. In words: Anticoagulant activity in human plasma assessed as prothrombin time. The class given is functional, cell-free.
A further series concerns the target T1, Cytochrome P450 1A2 (Homo sapiens, UniProt P05177).
T1 sequence (P05177 whole entry): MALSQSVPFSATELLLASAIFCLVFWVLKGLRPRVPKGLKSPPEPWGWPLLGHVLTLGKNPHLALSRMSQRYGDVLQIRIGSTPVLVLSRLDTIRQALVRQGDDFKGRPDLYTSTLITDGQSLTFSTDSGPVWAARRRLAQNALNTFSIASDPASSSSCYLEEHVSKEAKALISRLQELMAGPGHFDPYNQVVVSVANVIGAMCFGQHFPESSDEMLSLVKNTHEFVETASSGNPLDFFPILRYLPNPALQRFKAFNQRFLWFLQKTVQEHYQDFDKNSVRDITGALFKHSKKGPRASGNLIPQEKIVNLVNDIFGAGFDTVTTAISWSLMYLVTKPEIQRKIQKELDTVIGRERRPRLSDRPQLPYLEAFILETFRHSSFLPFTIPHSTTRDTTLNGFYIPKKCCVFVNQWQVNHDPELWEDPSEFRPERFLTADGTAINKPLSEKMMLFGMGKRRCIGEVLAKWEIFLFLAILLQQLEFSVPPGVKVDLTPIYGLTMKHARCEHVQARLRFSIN
Kind of series: Inhibition of CYP1A2 in human liver microsomes at 90 uM. Type of series: ADME, Microsome.

Series [2] in a line: AUC (0 to 24 hrs) in cynomolgus monkey at 0.1 mg/kg, po after >24 hrs. The class given is ADME, organism-based, Macaca fascicularis. Details: time < 24 hr, dose 0.1 mg/kg, route oral. Conditions: plasma.
The target in series [3] is T2, Proteinase-activated receptor 1 (Homo sapiens, UniProt P25116).
T2 sequence (P25116 whole entry): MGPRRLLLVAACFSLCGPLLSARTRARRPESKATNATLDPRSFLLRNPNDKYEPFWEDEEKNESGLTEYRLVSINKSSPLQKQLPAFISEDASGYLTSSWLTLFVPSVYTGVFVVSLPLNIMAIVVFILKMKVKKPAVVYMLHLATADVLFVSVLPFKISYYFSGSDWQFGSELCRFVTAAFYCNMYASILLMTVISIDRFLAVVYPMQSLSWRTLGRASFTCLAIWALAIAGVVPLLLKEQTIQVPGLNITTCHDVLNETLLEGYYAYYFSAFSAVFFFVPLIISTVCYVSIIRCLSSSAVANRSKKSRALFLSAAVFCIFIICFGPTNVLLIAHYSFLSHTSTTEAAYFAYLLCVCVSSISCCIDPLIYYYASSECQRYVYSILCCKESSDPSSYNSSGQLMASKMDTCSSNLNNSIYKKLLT
In words: Displacement of [3H]haTRAP from PAR1 in human platelets.

A short description of series [4]: Cmax in cynomolgus monkey at 0.1 mg/kg, po after >24 hrs. Conditions: in vivo. The class given is ADME, organism-based, Macaca fascicularis. The arrangement: dose 0.1 mg/kg, route oral.
The nature of series [5]: Cmax in rat 10 mg/kg, po. The class given is ADME, organism-based. The arrangement: dose 10 mg/kg, route oral. Conditions: in vivo.
The subject of series [6] is Platelet. In words: Ex vivo inhibition of haTRAP-induced platelet aggregation in cynomolgus monkey at 0.5 mg/kg, po after 24 hrs by impedance aggregometry. Type of series: functional. Conditions: Macaca fascicularis.
Series [7] is described as follows: Oral bioavailability in monkey 1 mg/kg. The class given is ADME, organism-based, Macaca mulatta. The note with it: rhesus monkey, in vivo.
Series [8] in a line: Half life in rat 10 mg/kg, iv. Type of series: ADME, organism-based. The arrangement: dose 10 mg/kg, route intravenous. The note with it: in vivo.
The nature of series [9]: AUC (0 to 24 hrs) in monkey 1 mg/kg, po. The note with it: rhesus monkey, plasma. Type of series: ADME, organism-based, Macaca mulatta. Details: time < 24 hr, dose 1 mg/kg, route oral.
The nature of series [10]: Inhibition of […] in human liver microsomes at 90 uM. Type of series: ADME, Microsome.
A short description of series [11]: Half life in monkey 1 mg/kg, iv. Type of series: ADME, organism-based, Macaca mulatta. Conditions: rhesus monkey, in vivo. The arrangement: dose 1 mg/kg, route intravenous.
The nature of series [12]: Cmax in monkey 1 mg/kg, po. Type of series: ADME, organism-based, Macaca mulatta. The arrangement: dose 1 mg/kg, route oral. The note with it: rhesus monkey, in vivo.
Series [13] in a line: Tmax in rat 10 mg/kg, po. The class given is ADME, organism-based. The arrangement: dose 10 mg/kg, route oral. Conditions: in vivo.
A further series has as its target Cytochrome P450 3A4 (Homo sapiens, UniProt P08684). Kind of series: Inhibition of CYP3A4 in human liver microsomes at 90 uM. Type of series: ADME, Microsome.
A short description of series [14]: Tmax in monkey 1 mg/kg, po. Type of series: ADME, organism-based, Macaca mulatta. Details: dose 1 mg/kg, route oral. Conditions: rhesus monkey, in vivo.
Series [15] addresses T2, Proteinase-activated receptor 1. Kind of series: Antagonist activity at human PAR1 in HCASMC assessed as inhibition of thrombin-induced calcium efflux. The class given is functional.
The nature of series [16]: Oral absorption in rat 10 mg/kg, po. Type of series: ADME, organism-based. Details: dose 10 mg/kg, route oral. Conditions: in vivo, read-out: Fabs.
Series [17] has as its system Plasma. Kind of series: Anticoagulant activity in human plasma assessed as activated partial thromboplastin time. The class given is functional, cell-free.
Series [18] has as its target T3, Proteinase-activated receptor 4 (Homo sapiens) (UniProt Q96RI0).
T3 sequence (whole entry): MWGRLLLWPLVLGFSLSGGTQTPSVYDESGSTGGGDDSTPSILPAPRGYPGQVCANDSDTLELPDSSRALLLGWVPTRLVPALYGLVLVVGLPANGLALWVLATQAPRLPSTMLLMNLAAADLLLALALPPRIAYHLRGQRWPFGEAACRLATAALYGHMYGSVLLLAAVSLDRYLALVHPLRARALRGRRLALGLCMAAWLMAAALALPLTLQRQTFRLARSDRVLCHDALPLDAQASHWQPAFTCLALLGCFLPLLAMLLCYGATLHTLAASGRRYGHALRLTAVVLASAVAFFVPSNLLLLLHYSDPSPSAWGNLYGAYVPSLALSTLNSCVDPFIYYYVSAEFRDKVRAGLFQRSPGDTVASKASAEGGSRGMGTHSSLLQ
Kind of series: Activity at PAR4.

The subject of series [19] is Platelet. In words: Ex vivo inhibition of haTRAP-induced platelet aggregation in cynomolgus monkey at 0.3 mg/kg, po after 24 hrs by impedance aggregometry. The class given is functional. Conditions: Macaca fascicularis.
The target in series [20] is Proteinase-activated receptor 2 (Homo sapiens) (UniProt P55085). Kind of series: Binding affinity to PAR2.
The target in the next series is Cytochrome P450 2C9 (Homo sapiens, UniProt P11712). Kind of series: Inhibition of CYP2C9 in human liver microsomes at 90 uM. Type of series: ADME, Microsome.
A short description of series [21]: AUC (0 to 24 hrs) in rat 10 mg/kg, po. The class given is ADME, organism-based. Conditions: plasma. Details: time < 24 hr, dose 10 mg/kg, route oral.
Series [22] deals with Platelet. In words: Ex vivo inhibition of haTRAP-induced platelet aggregation in cynomolgus monkey at 0.1 mg/kg after >24 hrs by impedance aggregometry. The class given is functional. Conditions: Macaca fascicularis.
The nature of series [23]: Oral bioavailability in rat 10 mg/kg. Type of series: ADME, organism-based. Conditions: in vivo.
Series [24] in a line: Oral absorption in monkey 1 mg/kg, po. The note with it: rhesus monkey, in vivo, read-out: Fabs.
The target in another series is Cytochrome P450 2C19 (Homo sapiens, UniProt P33261). In words: Inhibition of CYP2C19 in human liver microsomes at 90 uM. Type of series: ADME, Microsome.
For series [25], the target named is T4, Proteinase-activated receptor 3 (Homo sapiens) (UniProt O00254).
T4 sequence (whole entry): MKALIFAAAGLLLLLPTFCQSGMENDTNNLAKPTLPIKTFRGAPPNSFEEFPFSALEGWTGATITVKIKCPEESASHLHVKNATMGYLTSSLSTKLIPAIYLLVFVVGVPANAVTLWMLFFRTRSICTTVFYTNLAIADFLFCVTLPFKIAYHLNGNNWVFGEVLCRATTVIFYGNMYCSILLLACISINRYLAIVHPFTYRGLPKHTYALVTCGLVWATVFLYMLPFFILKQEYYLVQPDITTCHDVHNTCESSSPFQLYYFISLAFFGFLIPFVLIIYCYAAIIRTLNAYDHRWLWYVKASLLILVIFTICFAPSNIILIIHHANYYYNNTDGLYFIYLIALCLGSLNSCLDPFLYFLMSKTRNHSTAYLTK
Kind of series: Binding affinity to PAR3.

The subject of series [26] is Platelet. Kind of series: Ex vivo inhibition of haTRAP-induced platelet aggregation in cynomolgus monkey at 1 mg/kg after >24 hrs by impedance aggregometry. The class given is functional. Conditions: Macaca fascicularis.
A short description of series [27]: AUC (0 to 24 hrs) in cynomolgus monkey at 1 mg/kg, po after >24 hrs. Details: time < 24 hr, dose 1 mg/kg, route oral. The class given is ADME, organism-based, Macaca fascicularis. Conditions: plasma.
Series [28] can be described thus: Cmax in cynomolgus monkey at 1 mg/kg, po after >24 hrs. The class given is ADME, organism-based, Macaca fascicularis. Details: dose 1 mg/kg, route oral. Conditions: in vivo.

Cytochrome P450 3A4, sequence (P08684 whole entry): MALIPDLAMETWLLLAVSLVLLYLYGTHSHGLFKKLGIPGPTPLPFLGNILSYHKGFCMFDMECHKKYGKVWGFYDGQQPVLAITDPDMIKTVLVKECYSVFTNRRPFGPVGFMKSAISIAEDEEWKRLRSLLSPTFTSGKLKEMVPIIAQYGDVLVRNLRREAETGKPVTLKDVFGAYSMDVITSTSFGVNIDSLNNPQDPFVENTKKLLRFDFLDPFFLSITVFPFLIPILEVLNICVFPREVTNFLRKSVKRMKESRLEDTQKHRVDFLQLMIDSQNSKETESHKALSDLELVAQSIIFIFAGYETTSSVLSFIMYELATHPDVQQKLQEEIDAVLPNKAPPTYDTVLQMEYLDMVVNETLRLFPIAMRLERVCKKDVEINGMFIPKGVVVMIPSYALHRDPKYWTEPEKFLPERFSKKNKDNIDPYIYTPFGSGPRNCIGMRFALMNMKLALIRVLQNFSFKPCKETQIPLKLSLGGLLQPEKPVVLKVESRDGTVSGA
Cytochrome P450 2C19, sequence (P33261 whole entry): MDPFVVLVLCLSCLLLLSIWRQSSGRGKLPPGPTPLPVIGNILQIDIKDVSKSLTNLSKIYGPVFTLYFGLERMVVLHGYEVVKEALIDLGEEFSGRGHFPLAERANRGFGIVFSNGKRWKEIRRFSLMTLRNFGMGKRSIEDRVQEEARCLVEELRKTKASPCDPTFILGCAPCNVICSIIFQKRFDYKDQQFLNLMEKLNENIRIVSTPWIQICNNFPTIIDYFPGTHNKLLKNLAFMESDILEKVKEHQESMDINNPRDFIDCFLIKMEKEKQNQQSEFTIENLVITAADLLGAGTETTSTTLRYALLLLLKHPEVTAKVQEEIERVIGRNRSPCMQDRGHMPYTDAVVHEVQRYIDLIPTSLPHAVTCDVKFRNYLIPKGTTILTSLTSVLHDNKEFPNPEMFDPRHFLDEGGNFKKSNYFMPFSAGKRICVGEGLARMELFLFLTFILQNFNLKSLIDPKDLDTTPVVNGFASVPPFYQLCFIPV
Cytochrome P450 2C9, sequence (P11712 whole entry): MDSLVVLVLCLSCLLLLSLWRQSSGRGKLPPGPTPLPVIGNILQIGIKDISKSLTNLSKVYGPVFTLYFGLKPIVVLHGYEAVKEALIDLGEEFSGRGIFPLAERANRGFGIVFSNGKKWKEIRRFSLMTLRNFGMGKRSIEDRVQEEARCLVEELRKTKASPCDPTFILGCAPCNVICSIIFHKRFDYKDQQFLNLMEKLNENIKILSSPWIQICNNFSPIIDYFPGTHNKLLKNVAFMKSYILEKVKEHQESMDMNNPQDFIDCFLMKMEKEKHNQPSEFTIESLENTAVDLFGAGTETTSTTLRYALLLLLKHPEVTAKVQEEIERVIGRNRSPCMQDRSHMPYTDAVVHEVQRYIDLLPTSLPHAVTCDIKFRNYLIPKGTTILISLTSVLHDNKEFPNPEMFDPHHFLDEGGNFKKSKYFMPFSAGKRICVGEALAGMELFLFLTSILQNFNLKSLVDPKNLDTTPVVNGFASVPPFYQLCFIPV
Proteinase-activated receptor 2 (Homo sapiens), sequence (P55085 whole entry): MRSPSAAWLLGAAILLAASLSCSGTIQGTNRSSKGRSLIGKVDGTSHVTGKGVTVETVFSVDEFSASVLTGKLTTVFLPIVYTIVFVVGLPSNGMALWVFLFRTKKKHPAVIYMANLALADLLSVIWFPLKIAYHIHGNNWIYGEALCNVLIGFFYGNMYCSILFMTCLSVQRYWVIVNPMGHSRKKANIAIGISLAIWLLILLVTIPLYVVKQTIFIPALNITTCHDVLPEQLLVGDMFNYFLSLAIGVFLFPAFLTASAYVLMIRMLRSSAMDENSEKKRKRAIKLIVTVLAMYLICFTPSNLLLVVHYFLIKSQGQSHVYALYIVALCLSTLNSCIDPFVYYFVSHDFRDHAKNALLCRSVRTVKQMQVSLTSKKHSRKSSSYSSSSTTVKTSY

In the case of `CCOC(=O)N[C@@H]1CC[C@@H]2[C@@H](C1)C[C@H]1C(=O)O[C@H](C)[C@H]1[C@H]2/C=C/c1ccc(-c2cccc(F)c2)cn1` [VORAPAXAR], the result (with Plasma [1]; with Plasma [17]; in series [18]; in [20]; in series [25]) was inactive. Also, the Activity result (at Cytochrome P450 1A2; in series [10]; at Cytochrome P450 3A4; at Cytochrome P450 2C9; at Cytochrome P450 2C19) was “Not Active” throughout. Also, the AUC(0-t) at 24 h in series [2] stood at 0.2 µM·h; in series [9], 10 µM·h; in [21], 5.3 µM·h. Also, the Ki in [3] was 8.1 nM; in series [15] it was 1.1 nM. Further, the figures for the Cmax in series [4], in series [5] and in series [12] were 0.018 µM, 0.67 µM and 1.3 µM, respectively. Besides, at 0.5 mg/kg the inhibition in vivo in the series on Platelet [6] was 100%. In addition, the bioavailability in series [7] is 86%; in [23], 33%. Also, the results for the half-life in series [8] and in [11] were 5.1 h and 13 h, respectively. For the same compound, the Tmax in series [13] is 3 h; in series [14], 1 h. For the same compound, the results for the Fa in series [16] and in [24] were 68% and 82%, respectively. In the series with Platelet [19], this compound gave an inhibition in vivo at 0.3 mg/kg of 100%. For the same compound, the inhibition in vivo at 0.1 mg/kg in the series with Platelet [22] came out at 100%.
In the series on Platelet [26], `CCOC(=O)N[C@@H]1CC[C@@H]2[C@@H](C1)C[C@H]1C(=O)O[C@H](C)[C@H]1[C@H]2/C=C/c1ccc(-c2cccc(C(F)(F)F)c2)cn1` registered an inhibition in vivo at 1 mg/kg of 100%. This compound also displayed an inhibition constant (Ki) in series [3] of 13 nM. Also, the AUC(0-t) at 24 h in [27] was 5.03 µM·h. In series [28], this compound returned a Cmax of 0.33 µM.
